Where two headings read alike, the source gives them in different places.
Legend:
[1] = system: PRMT5-dependent Symmetric Di-methyl Arginine signal in HCT116 parental cells; assay: SYM11 In-Cell Western, HCT116 parental; type: cell-based; conditions: 4 days of treatment, SYM11/DRAQ5 ratio
Description: (§1) Control samples were analyzed in parallel.
Briefly, on Day 0, 2,000 HCT116 parental or HCT116 homozygous MTAP knockout cells were seeded in 96 well plates in McCoy's 5A supplemented with 10% fetal bovine serum and pen/strep and the cells were incubated overnight at 37° C. plus 5% CO2. The following day, cells were treated with DMSO vehicle control or a dose response of PRMT5 inhibitors, and incubated at 37° C. plus 5% CO^2 for four days.
After 4 days of treatment, the cells were fixed by adding 50 μl of 4% paraformaldehyde solution to each well and the cells were incubated for 20 min at room temperature. The paraformaldehyde solution was removed, 150 μl of ice-cold methanol was added and the plate was placed −20° C. for 10 minutes. The methanol was removed, 150 μl of Odyssey Blocking buffer+0.05% Tween20 was added and the plate was incubated at room temperature with shaking for one hour.
The primary SYM11 antibody solution was removed by aspiration and the wells were washed three consecutive times with phosphate buffered saline containing 0.1% Tween-20 (PBST).
The secondary antibody solution was removed by aspiration and the wells were washed three consecutive times with PB ST.
The SYM11 signal and the DRAQ5 signal were quantified using a Li-Cor Odyssey machine reading at […], respectively. The SYM11/DRAQ5 ratio was used to calculate the inhibition of Symmetric Dimethyl Arginine as percent of DMSO control.

[2] = system: HCT116 homozygous MTAP knockout cells; assay: Proliferation assay (CellTiter-Glo, 10 days of treatment), HCT116 MTAP knockout; type: cell-based; conditions: read-out: Proliferation HCT116MTAP_KO IC50
Outline: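 Viability of the CRISPR/Cas9 homozygous MTAP-knockout HCT116 line was read by CellTiter-Glo after 10 days of PRMT5 inhibitor exposure, with IC50 derived from the dose response. Compound was given the day after seeding and renewed at an identical concentration when cells were split 1:10 on day 6.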

[3] = target: T1, PRMT5/MEP50 complex (Homo sapiens (Human), UniProt O14744); assay: PRMT5:MEP50 HotSpot Assay (full-length histone H2A substrate, plus and minus MTA); type: biochemical; conditions: in the presence of 2 μM MTA
Outline: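 Tritium incorporated into recombinant full-length histone H2A was counted by scintillation after stopped reactions were captured on filter paper.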

[4] = system: PRMT5-dependent Symmetric Di-methyl Arginine signal in HCT116 homozygous MTAP knockout cells; assay: SYM11 In-Cell Western, HCT116 MTAP knockout; type: cell-based; conditions: HCT116 homozygous MTAP knockout cells, 4 days of treatment, SYM11/DRAQ5 ratio, read-out: In-cell-Western (SYM11) HCT116 MTAP_KO IC50
[5] = system: HCT116 parental cells; assay: Proliferation assay (CellTiter-Glo, 10 days of treatment), HCT116 parental; type: cell-based
Description: as §1
Briefly, on Day 0, 250 HCT116 parental or HCT116 homozygous MTAP knockout cell were seeded in 96 well plates in McCoy's 5A supplemented with 10% fetal bovine serum and pen/strep and the cells were incubated overnight at 37° C. plus 5% CO2.
The following day, cells were treated with DMSO vehicle control or a dose response of PRMT5 inhibitors and incubated at 37 C plus 5% CO2 for five days. On Day 6, the cells were trypsinized and split 1:10 into new 96-well plates with fresh medium containing the same concentration of PRMT5 inhibitor and incubated for an additional 5 days at 37° C. plus 5% CO^2.
On Day 11, the viability of the cells was measured using a CTG assay kit (CellTiter-Glo; Promega cat.no G7573) in accordance with the manufacturer's instructions. The IC50 values for each compound after 10 days of treatment were calculated using GraphPad PRISM software.

[6] = target: T1, PRMT5/MEP50 complex; assay: PRMT5:MEP50 FlashPlate Assay (histone H4 peptide substrate, plus and minus MTA); type: biochemical
Description: The PRMT5 inhibitory activity of compounds of the present invention was determined using either a PRMT5:MEP50 FlashPlate Assay (Reaction Biology Corporation) or a PRMT5:MEP50 HotSpot Assay (Reaction Biology Corporation).
1. PRMT5:MEP50 FlashPlate Assay

T1 sequence (O14744 2-637): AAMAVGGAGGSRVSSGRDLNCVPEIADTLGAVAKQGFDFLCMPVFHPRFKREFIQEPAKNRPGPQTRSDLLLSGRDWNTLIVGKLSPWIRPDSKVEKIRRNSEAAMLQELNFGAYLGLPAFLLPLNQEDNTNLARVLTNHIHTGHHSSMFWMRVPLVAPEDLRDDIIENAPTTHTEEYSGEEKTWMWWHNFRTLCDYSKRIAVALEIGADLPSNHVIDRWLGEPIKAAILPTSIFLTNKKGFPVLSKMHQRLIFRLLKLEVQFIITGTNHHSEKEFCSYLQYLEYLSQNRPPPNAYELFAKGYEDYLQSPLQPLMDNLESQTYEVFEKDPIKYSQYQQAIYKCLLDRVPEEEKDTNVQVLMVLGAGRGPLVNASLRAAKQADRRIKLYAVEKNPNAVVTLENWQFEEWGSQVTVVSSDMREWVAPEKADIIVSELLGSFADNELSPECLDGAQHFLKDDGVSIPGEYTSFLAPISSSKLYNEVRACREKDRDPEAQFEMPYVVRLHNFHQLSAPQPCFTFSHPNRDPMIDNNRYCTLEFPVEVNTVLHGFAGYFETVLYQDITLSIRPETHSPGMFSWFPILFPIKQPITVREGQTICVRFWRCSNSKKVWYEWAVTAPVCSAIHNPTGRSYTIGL
T1 sequence (Q9BQA1 2-342 partner): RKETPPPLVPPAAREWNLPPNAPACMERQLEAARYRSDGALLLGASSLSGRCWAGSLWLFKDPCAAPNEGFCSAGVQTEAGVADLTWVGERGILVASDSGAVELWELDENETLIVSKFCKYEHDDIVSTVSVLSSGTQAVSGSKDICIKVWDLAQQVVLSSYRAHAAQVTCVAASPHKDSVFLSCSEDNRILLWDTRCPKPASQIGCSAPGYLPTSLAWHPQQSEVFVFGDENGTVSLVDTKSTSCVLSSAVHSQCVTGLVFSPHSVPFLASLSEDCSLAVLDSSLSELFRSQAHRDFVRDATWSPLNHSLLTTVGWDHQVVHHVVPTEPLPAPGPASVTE

Structure (SMILES)	IC50 [1]	IC50 [2]	IC50 ([3]; read-out: IC50 + 2 μM MTA)	IC50 [4]	IC50 [5]	IC50 ([1]; Homo sapiens, HCT-116, 96 h)	IC50 ([2]; Homo sapiens, HCT-116, 240 h)	IC50 ([4]; Homo sapiens, HCT-116, 96 h)	IC50 ([6]; IC50 + 2 μM MTA (nM), in the presence of 2 μM MTA)	IC50 ([6]; in the absence of MTA, read-out: IC50)	IC50 ([5]; Homo sapiens, HCT-116, 240 h)	IC50 ([3]; IC50 + 2 μM MTA)
Cn1ncc(-c2ccc3c(=O)[nH]nc(CN)c3c2)c1-c1c(F)cc2ccccc2c1C#N (single isomer, unassigned) [Example 16-2]	> 1 µM	0.224 µM	0.111 µM	0.073 µM	5.92 µM							
NCc1n[nH]c(=O)c2ccc(-c3cncc(Oc4cccc(Cl)c4)c3)cc12 [Example 4-67, 4-(aminomethyl)-6-(5-(3-chlorophenoxy)pyridin-3-yl)phthalazin-1(2H)-one]						10 µM	2.03 µM	0.945 µM	4 nM	204 nM	7.7 µM	
Cc1cc(C#N)c(-c2c(-c3ccc4c(=O)[nH]nc(CN)c4c3)cnn2C)cc1Cl [Example 4-127, 2-(4-(4-(aminomethyl)-1-oxo-1,2-dihydrophthalazin-6-yl)-1-methyl-1H-pyrazol-5-yl)-4-chloro-5-methylbenzonitrile]						5.92 µM	0.615 µM	0.025 µM			> 10 µM	2.54 µM
Cn1ncc(-c2ccc3c(=O)[nH]nc(CN)c3c2)c1-c1cc2ccccc2cc1C#N [Example 4-128, 3-(4-(4-(aminomethyl)-1-oxo-1,2-dihydrophthalazin-6-yl)-1-methyl-1H-pyrazol-5-yl)-2-naphthonitrile]						4.02 µM	0.427 µM	0.039 µM			9.63 µM	1.31 µM
COc1cc(C#N)c(-c2c(-c3ccc4c(=O)[nH]nc(CN)c4c3)cnn2C)cc1OC [Example 4-129, 2-(4-(4-(aminomethyl)-1-oxo-1,2-dihydrophthalazin-6-yl)-1-methyl-1H-pyrazol-5-yl)-4,5-dimethoxybenzonitrile]						> 10 µM	1.35 µM	0.38 µM			> 10 µM	1.65 µM
COc1cc(-c2c(-c3ccc4c(=O)[nH]nc(CN)c4c3)cnn2C)c(C#N)cc1Cl [Example 4-130, 2-(4-(4-(aminomethyl)-1-oxo-1,2-dihydrophthalazin-6-yl)-1-methyl-1H-pyrazol-5-yl)-5-chloro-4-methoxybenzonitrile]						> 10 µM	0.756 µM	0.024 µM			> 10 µM	1.95 µM
Cc1cc(C#N)c(-c2c(-c3ccc4c(=O)[nH]nc(CN)c4c3)cnn2C)cc1C [Example 4-131, 2-(4-(4-(aminomethyl)-1-oxo-1,2-dihydrophthalazin-6-yl)-1-methyl-1H-pyrazol-5-yl)-4-5-dimethylbenzonitrile]						3.25 µM	0.847 µM	0.043 µM			> 10 µM	1.89 µM
Cc1cc(-c2c(-c3ccc4c(=O)[nH]nc(CN)c4c3)cnn2C)c(C#N)cc1Cl [Example 4-132, 2-(4-(4-(aminomethyl)-1-oxo-1,2-dihydrophthalazin-6-yl)-1-methyl-1H-pyrazol-5-yl)-5-chloro-4-methylbenzonitrile]						> 10 µM	0.595 µM	0.024 µM			> 10 µM	2.56 µM
CC(C)c1ccc(-c2c(-c3ccc4c(=O)[nH]nc(CN)c4c3)cnn2C)cc1 [Example 4-135, 4-(aminomethyl)-6-(5-(4-isopropylphenyl)-1-methyl-1H-pyrazol-4-yl)phthalazin-1(2H)-one]						3.21 µM	3.76 µM	0.031 µM			6.61 µM	0.641 µM
Cn1ncc(-c2ccc3c(=O)[nH]nc(CN)c3c2)c1-c1cccc(OC2CCC2)c1 [Example 4-137, 4-(aminomethyl)-6-(5-(3-cyclobutoxyphenyl)-1-methyl-1H-pyrazol-4-yl)phthalazin-1(2H)-one]						5.18 µM	3.24 µM	0.088 µM			> 10 µM	0.81 µM
Cn1ncc(-c2ccc3c(=O)[nH]nc(CN)c3c2)c1-c1ccc2ccccc2c1 [Example 4-139, 4-(aminomethyl)-6-(1-methyl-5-(naphthalen-2-yl)-1H-pyrazol-4-yl)phthalazin-1(2H)-one]						5.53 µM	1.49 µM	0.254 µM			5.07 µM	1.23 µM
Cn1ncc(-c2ccc3c(=O)[nH]nc(CN)c3c2)c1-c1ccc2ncc(Cl)cc2c1C#N [Example 4-225, 6-[4-[4-(aminomethyl)-1-oxo-2H-phthalazin-6-yl]-2-methyl-pyrazol-3-yl]-3-chloro-quinoline-5-carbonitrile]						> 1 µM	0.084 µM	0.017 µM			5.17 µM	
Cn1ncc(-c2ccc3c(=O)[nH]nc(CN)c3c2)c1-c1c(C#N)cc2ccccc2c1Cl [Example 4-229, 3-(4-(4-(aminomethyl)-1-oxo-1,2-dihydrophthalazin-6-yl)-1-methyl-1H-pyrazol-5-yl)-4-chloro-2-naphthonitrile]						> 1 µM	0.059 µM	0.011 µM			2.86 µM	
Cn1ncc(-c2ccc3c(=O)[nH]nc(CN)c3c2)c1-c1cc2ccccc2c(OC2CC2)c1C#N [Example 4-231, 3-(4-(4-(aminomethyl)-1-oxo-1,2-dihydrophthalazin-6-yl)-1-methyl-1H-pyrazol-5-yl)-1-cyclopropoxy-2-naphthonitrile]						> 1 µM	0.05 µM	0.037 µM			3.12 µM	
Cc1cc(OC2CC2)c(C#N)c(-c2c(-c3ccc4c(=O)[nH]nc(CN)c4c3)cnn2C)c1F [Example 4-241, 2-(4-(4-(aminomethyl)-1-oxo-1,2-dihydrophthalazin-6-yl)-1-methyl-1H-pyrazol-5-yl)-6-cyclopropoxy-3-fluoro-4-methylbenzonitrile]						> 1 µM	0.051 µM	0.014 µM			2.4 µM	
Cn1ncc(-c2cc(Cl)c3c(=O)[nH]nc(CN)c3c2)c1-c1cc(Cl)cc(OC2CC2)c1C#N [Example 10-16, 2-(4-(4-(aminomethyl)-8-chloro-1-oxo-1,2-dihydrophthalazin-6-yl)-1-methyl-1H-pyrazol-5-yl)-4-chloro-6-cyclopropoxybenzonitrile]						0.086 µM	0.086 µM	0.048 µM			1.76 µM	
Cc1cc(-c2c(-c3ccc4c(=O)[nH]nc(CN)c4c3)cnn2C)c(C#N)c2ccccc12 [Example 12-10, 2-(4-(4-(aminomethyl)-1-oxo-1,2-dihydrophthalazin-6-yl)-1-methyl-1H-pyrazol-5-yl)-4-methyl-1-naphthonitrile]						> 1 µM	0.038 µM	0.003 µM			1.33 µM	
CCc1cc(-c2cnn(C)c2-c2ccc3ccccc3c2C#N)cc2c(CN)n[nH]c(=O)c12 [Example 15-1, 2-[4-[4-(aminomethyl)-8-ethyl-1-oxo-2H-phthalazin-6-yl]-2-methyl-pyrazol-3-yl]naphthalene-1-carbonitrile]						> 1 µM	0.051 µM	0.022 µM			1.56 µM	

— patent US11479551B2, “MTA-cooperative PRMT5 inhibitors” (Mirati Therapeutics, Inc., priority 2019, dated 2022)
